{
  "source": "patent US20090246198A1",
  "about": "“MAPK/ERK KINASE INHIBITORS AND METHODS OF USE THEREOF” (TAKEDA PHARMACEUTICAL COMPANY LIMITED, priority 2008, published 2009)",
  "data": [
    {"biological_target": "T1, MEK1 (Homo sapiens, UniProt Q02750, DEL33-52/S218E/S222D)", "T1 construct": "6-histidine tag (N); made in house; host or cells: MEK1: baculovirus / Spodoptera frugiperda Sf9; ERK1: E. coli", "T1 sequence (Q02750 with tags, fused parts or gaps DEL33-52/S218E/S222D)": "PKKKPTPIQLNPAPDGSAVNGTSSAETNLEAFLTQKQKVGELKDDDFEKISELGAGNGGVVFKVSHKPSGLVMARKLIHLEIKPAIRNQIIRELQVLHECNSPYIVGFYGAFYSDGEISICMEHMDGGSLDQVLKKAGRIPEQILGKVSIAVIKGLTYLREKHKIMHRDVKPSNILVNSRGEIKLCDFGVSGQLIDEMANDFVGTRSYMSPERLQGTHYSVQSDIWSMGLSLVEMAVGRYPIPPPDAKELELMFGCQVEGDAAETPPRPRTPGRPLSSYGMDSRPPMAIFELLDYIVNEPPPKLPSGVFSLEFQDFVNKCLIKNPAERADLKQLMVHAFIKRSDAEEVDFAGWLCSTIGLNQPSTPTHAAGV", "assay": "MEK1 inhibition, fluorescence polarization (IMAP) assay with ERK1 and FI-Erktide", "format": "biochemical", "conditions": "1 nM MEK1, 25 nM ERK1, 400 μM ATP, 22 min at room temperature; read-out: pIC50 (nM); IC50 of Exemplified Compounds against MEK1 (converted)", "experimental": "[…] […] […] SEQ ID NO: 2 is the DNA sequence that was used to encode SEQ ID NO: 1.\nThe inhibitory properties of compounds relative to MEK1 or MEK2 may be determined using a black 384-well-plate format under the following reaction conditions: 50 mM HEPES pH 7.3, 10 mM NaCl, 10 mM MgCl2, 0.01% Brij35, 1 nM MEK1 or 4 nM MEK2, 25 nM ERK1, 400 μM ATP, 500 nM IPTTPITTYFFFK-5FAM-COOH (FI-Erktide), and 1% DMSO. Reaction product is determined quantitatively by fluorescent polarization using progressive IMAP beads from Molecular Devices.\nThe assay reaction may be initiated as follows: 2 μl of the mixture of 1.5 μM FI-Erktide and 75 nM ERK with 2 μl of inhibitor (2 fold serial dilutions for 11 data points for each inhibitor) containing 3% DMSO were added to each well of the plate, followed by the addition of 2 μl of the mixture of 3 nM MEK1 or 12 nM MEK2and 1200 μM ATP to initiate the reaction (final enzyme concentration was 1 nM for MEK1 or 4 nM for MEK2). The reaction mixture may then be incubated at room temperature for 22 min, and quenched and developed by addition of 20 μl of 1:200 dilution of progressive IMAP beads (Molecular Devices) in 80% buffer A, 20% buffer B and 0.003% Tween 20. Fluorescence polarization of the resulting reaction mixtures may be measured after a 1 hour incubation at room temperature.\nIC50 values may be calculated by non-linear curve fitting of the compound concentrations and fluorescence polarization signal to the standard IC50 equation.", "units": {"IC50": "nM"}, "values": [
      {"smiles": "Cn1c(=O)c(F)c(Nc2ccc(Br)cc2F)c2c(=O)n(C[C@@H](O)CO)ccc21", "note": "[Example 4, (R)-4-(4-bromo-2-fluorophenylamino)-6-(2,3-dihydroxypropyl)-3-fluoro-1-methyl-1,6-naphthyridine-2,5(1H,6H)-dione]", "IC50": "< 100"},
      {"smiles": "C#Cc1ccc(Nc2c(F)c(=O)n(C)c3ccn(C[C@@H](O)CO)c(=O)c23)c(F)c1", "note": "[Example 5, (R)-6-(2,3-dihydroxypropyl)-4-(4-ethynyl-2-fluorophenylamino)-3-fluoro-1-methyl-1,6-naphthyridine-2,5(1H,6H)-dione]", "IC50": "< 100"},
      {"smiles": "Cn1c(=O)cc(Nc2ccc(I)cc2F)c2c(=O)n(C[C@@H](O)CO)ccc21", "note": "[Example 1R, (R)-6-(2,3-dihydroxypropyl)-4-(2-fluoro-4-iodophenylamino)-1-methyl-1,6-naphthyridine-2,5(1H,6H)-dione]", "IC50": "< 100"},
      {"smiles": "Cn1c(=O)cc(Nc2ccc(I)cc2F)c2c(=O)n(C[C@H](O)CO)ccc21", "note": "[Example 1S, (S)-6-(2,3-dihydroxypropyl)-4-(2-fluoro-4-iodophenylamino)-1-methyl-1,6-naphthyridine-2,5(1H,6H)-dione]", "IC50": "< 100"},
      {"smiles": "Cn1c(=O)c(F)c(Nc2ccc(I)cc2F)c2c(=O)n(C[C@@H](O)CO)ccc21", "note": "[Example 3R, (R)-6-(2,3-dihydroxypropyl)-3-fluoro-4-(2-fluoro-4-iodophenylamino)-1-methyl-1,6-naphthyridine-2,5(1H,6H)-dione]", "IC50": "< 100"},
      {"smiles": "Cn1c(=O)cc(Nc2ccc(C3CC3)cc2F)c2c(=O)n(C[C@@H](O)CO)ccc21", "note": "[Example 6, (R)-4-(4-cyclopropyl-2-fluorophenylamino)-6-(2,3-dihydroxypropyl)-1-methyl-1,6-naphthyridine-2,5(1H,6H)-dione]", "IC50": "≥ 100"},
      {"smiles": "Cn1c(=O)c(F)c(Nc2ccc(I)cc2F)c2c(=O)n(C[C@H](O)CO)ccc21", "note": "[Example 3S, (S)-6-(2,3-dihydroxypropyl)-3-fluoro-4-(2-fluoro-4-iodophenylamino)-1-methyl-1,6-naphthyridine-2,5(1H,6H)-dione]", "IC50": "< 100"},
      {"smiles": "Cn1c(=O)cc(Nc2ccc(Br)cc2F)c2c(=O)n(CC(O)CO)ccc21", "note": "(racemic) [Example 2, 4-(4-bromo-2-fluorophenylamino)-6-(2,3-dihydroxypropyl)-1-methyl-1,6-naphthyridine-2,5(1H,6H)-dione]", "IC50": "< 100"},
      {"smiles": "Cn1c(=O)cc(Nc2ccc(Br)cc2F)c2c(=O)n(C[C@H](O)CO)ccc21", "note": "[Example 2S, (S)-4-(4-bromo-2-fluorophenylamino)-6-(2,3-dihydroxypropyl)-1-methyl-1,6-naphthyridine-2,5(1H,6H)-dione]", "IC50": "< 100"},
      {"smiles": "Cn1c(=O)cc(Nc2ccc(Br)cc2F)c2c(=O)n(C[C@@H](O)CO)ccc21", "note": "[Example 2R, (R)-4-(4-bromo-2-fluorophenylamino)-6-(2,3-dihydroxypropyl)-1-methyl-1,6-naphthyridine-2,5(1H,6H)-dione]", "IC50": "≥ 100"}
    ]}
  ]
}
